Article PMC5766630, “Non-estrogenic Xanthohumol Derivatives Mitigate Insulin Resistance and Cognitive Impairment in High-Fat Diet-induced Obese Mice” (Scientific Reports, 2018)

Tests used:
[1] = target: T1, full-length purified human estrogen receptor ERβ (Homo sapiens, UniProt Q92731); assay: ERβ competitive radiometric binding assay; conditions: RBA = IC50[estradiol]/IC50[compound] × 100, estradiol = 100; 2 nM [3H]-estradiol tracer, 18–24 h at 0 °C
T1 construct: full-length purified human estrogen receptors ERα and ERβ
T1 sequence (Q92731 whole entry): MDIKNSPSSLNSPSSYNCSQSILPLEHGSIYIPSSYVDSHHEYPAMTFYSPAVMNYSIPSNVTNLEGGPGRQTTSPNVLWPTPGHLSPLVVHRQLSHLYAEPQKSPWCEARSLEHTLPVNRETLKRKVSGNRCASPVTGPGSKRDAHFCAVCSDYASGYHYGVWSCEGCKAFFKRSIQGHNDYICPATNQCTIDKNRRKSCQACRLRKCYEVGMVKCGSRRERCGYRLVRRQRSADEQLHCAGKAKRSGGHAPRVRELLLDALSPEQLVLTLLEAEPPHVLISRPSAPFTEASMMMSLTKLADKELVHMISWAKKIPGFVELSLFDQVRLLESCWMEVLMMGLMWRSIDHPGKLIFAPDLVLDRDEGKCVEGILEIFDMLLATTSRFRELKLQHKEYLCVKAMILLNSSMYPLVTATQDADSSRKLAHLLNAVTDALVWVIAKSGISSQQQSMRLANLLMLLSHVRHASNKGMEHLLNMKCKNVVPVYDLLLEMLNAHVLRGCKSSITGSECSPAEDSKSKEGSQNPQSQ
Protocol: . The receptors and ligands were incubated for 18–24 h at 0 °C and then the receptor–ligand complexes separated using hydroxyapatite (BioRad, Hercules, CA, USA). […]

[2] = test system: liver AMPK (pAMPKα/total AMPKα); assay: AMPK activation in liver by Western blot; type: in vivo, mouse; conditions: HFD mice, 30 mg/kg/day, 13 weeks, vs control
Protocol: Approximately 150 mg of frozen liver and muscle tissues were homogenized in tubes containing RIPA buffer with protease and phosphatase inhibitors plus ceramic beads (1.4 mm Ceramic, Bulk Beads, Fisher Scientific, Pittsburgh, PA, USA) using a Precellys 24 (PEQLAB Biotechnology GmbH, Germany). Liver tissue was homogenized for 1 × 30 sec at 6,500 rpm whereas muscle was homogenized for 3 × 30 sec at 6,500 rpm with 20 sec intervals. The homogenates were centrifuged at 15,700 × g for 10 minutes and aliquots (50 µg of protein) of the supernatant (lysate) were separated by SDS-PAGE using 4–15% MP TGX Gels (Bio-Rad # 4561083) and blotted onto nitrocellulose membranes. Membranes were blocked with 5% nonfat milk for 2 h and incubated with antibodies against pAMPK (Phospho-AMPKα (Thr172) Antibody, cat. no. #2531 Cell Signaling Technology, Danvers, MA, USA), AMPK (AMPKα Antibody, cat. no. #2532 Cell Signaling Technology, Danvers, MA, USA), or β-actin (Santa Cruz Biotechnology) for 1 h or overnight. After a second reaction with secondary antibodies (horseradish peroxidase-conjugated IgG goat antirabbit or goat antimouse antibodies), the protein bands on the nitrocellulose membranes were visualized by enhanced chemiluminescence substrate on a Biorad ChemiDocTM MP Imaging System (BioRad Laboratories Inc, Hercules, CA, USA). Band intensities were quantified by densitometry using Image J software.

[3] = test system: progesterone receptor (PGR) expression in MCF-7 cells; assay: Progesterone receptor (PGR) gene expression in MCF-7 cells, real-time PCR; type: cell-based, human; conditions: 20 h; estradiol 1 and 10 nM; 8-PN, XN, DXN, TXN 0.2, 1 and 5 μM; vs 0.1% ethanol
Protocol: MCF-7 cells (American Type Culture Collection, Manassas, VA, USA) were cultured in DMEM (Corning Life Sciences, Tewksbury, MA, USA) supplemented with 10% fetal bovine serum (Corning Life Sciences) and 100 μg/ml penicillin/streptomycin (Invitrogen, Carlsbad, CA, USA). For estrogen-free experiments, cells were seeded in phenol-free DMEM (Gibco/Life Technologies, Grand Island, NY, USA) plus 10% charcoal-dextran-treated FBS (Corning Life Sciences) at 5 × 10^5 cells/well of a 6-well plate. […] Total RNA was isolated using TRIzol (Invitrogen) and converted into cDNA using iScript (Bio-Rad, Hercules, CA, USA). Real-time PCR was performed in triplicate on a CFX-96 (Bio-Rad) using primer-probe assays (IDT Technologies, Coralville, IA, USA) and SsoAdvanced Universal Probes Supermix (Bio-Rad) to quantify progesterone receptor (PGR) and GAPDH levels. The ratio of PGR to GAPDH was calculated as 2^−ΔCt PGR/2^−ΔCt GAPDH. Data were analyzed using a one-way ANOVA (p < 0.05 was considered statistically significant) and a post-hoc Tukey’s multiple comparison test. Induction of the progesterone receptor in MCF-7 cells is one of the indices of estrogenicity of flavonoids such as 8-PN[94].

MCF-7 cells = assay: MCF-7 cell proliferation, sulforhodamine B (SRB) assay; type: cell-based, human; conditions: 48 h exposure, vs vehicle control; for MCF-7 cell viability/proliferation at low concentrations: 0.001–1 µM
Protocol: The SRB assay has been used to study the effects of phytochemicals such as XN, DXN and 8-PN on cell proliferation of various cancer cell lines, including MCF-7 cells[91],[92]. SRB is a dye that binds to cellular proteins of adherent cells and the absorbance readings are a measure of the number of viable cells (cell mass) attached to the culture plate after incubation with the test compounds (samples) in comparison with vehicle control cells. The cell mass is then extrapolated as a measurement of cell viability and cell proliferation. Increased proliferation of MCF-7 cells is one of the measures of estrogenicity of phytochemicals. MCF-7 cells were plated at 10,000 cells/well in 96-well plates in DMEM medium containing 10% charcoal-stripped FBS and antibiotics. […] After incubation with the test compounds for 48 h, the cell culture medium was removed from each well of the 96-well plate and the cells were fixed for 1 h with 10% trichloroacetic acid. The cells on the plate were washed five with distilled water, air-dried, and then stained with SRB dye (0.4% w/v in 1% acetic acid). Excess dye was removed by washing the plate five times with 1% acetic acid. The plates were air-dried and the adsorbed dye was solubilized in 10 mM Tris buffer for 5 min on a shaker before reading the optical density (OD) at 565 nm. The percentage cell viability/proliferation was calculated as follows: (ODSample−ODZeroblank)/(ODControl−ODZeroblank)×100. Mean values and the coefficient of variation (CV) from six replicate wells were calculated and a one-way ANOVA was used to compare statistical differences between treated and control cells, with p < 0.05 as the level of significance.

Row | Structure (SMILES) | RBA ERβ (relative binding affinity) [1] | Increase of liver AMPK activation (phosphorylated AMPKα/total AMPKα) [2] | induction of PGR expression [3] | MCF-7 cell viability/proliferation at 10 µM (MCF-7 cells) | MCF-7 cell viability/proliferation at low concentrations (MCF-7 cells)
1 | COc1cc(O)c(CC=C(C)C)c(O)c1C(=O)CCc1ccc(O)cc1 [DXN, α,β-Dihydroxanthohumol] | 0.009 ± 0.002 | did not cause a significant activation | do not induce | significantly decreased | did not produce a significant increase
2 | COc1cc(O)c(CCC(C)C)c(O)c1C(=O)CCc1ccc(O)cc1 [TXN, tetrahydroxanthohumol] | 0.009 ± 0.002 | did not cause a significant activation | do not induce | significantly decreased | did not produce a significant increase
3 | COc1cc(O)c(CC=C(C)C)c(O)c1C(=O)/C=C/c1ccc(O)cc1 [XN, 3′-[3,3-dimethylallyl]-2′,4′,4-trihydroxy-6′-methoxychalcone] | 0.003 ± 0.001 | 24% | do not induce | significantly decreased | did not produce a significant increase
